Experimental data from US20230340012A1, “NATURAL AND SYNTHETIC COMPOUNDS FOR TREATING CANCER AND OTHER DISEASES” (PACIFIC ARROW LIMITED, priority 2009, published 2023).

System: cancer cells
Experiment: MTT cytotoxic assay of esterification products (Cytotoxicity activity)
Assay type: cell-based, human
Details: MTT cytotoxic assay, isolated esterification products of E4A
How it was run: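 Cytotoxicity was read by MTT (Carmichael method, modified), with cells seeded 24 h ahead of treatment. Sixteen human cancer lines spanning bone, lung, bladder, ovary, colon, pancreas, prostate, skin, mouth, kidney, breast, liver, brain, leukemia and cervix were used. Test samples were acyl chloride esterification products of triterpenes, as mixtures or HPLC-purified compounds.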

SMILES | Cytotoxicity activity
CCC(CC)C(=O)OCC1(C)C(OC(=O)C(CC)CC)CCC2(C)C1CCC1(C)C2CC=C2C3CC(C)(C)C(OC(=O)C(CC)CC)C(O)C3(COC(=O)C(CC)CC)C(O)CC21C (stereo not drawn) [Compound E11] | weak
CCC(CC)C(=O)OCC1(C)C(O)CCC2(C)C1CCC1(C)C2CC=C2C3CC(C)(C)C(O)C(OC(=O)C(CC)CC)C3(COC(=O)C(CC)CC)C(OC(=O)C(CC)CC)CC21C (stereo not drawn) [Compound E12] | weak
CCC(CC)C(=O)OCC1(C)C(O)CCC2(C)C1CCC1(C)C2CC=C2C3CC(C)(C)C(OC(=O)C(CC)CC)C(O)C3(COC(=O)C(CC)CC)C(OC(=O)C(CC)CC)CC21C (stereo not drawn) [Compound E13] | weak
CCC(CC)C(=O)OCC1(C)C(OC(=O)C(CC)CC)CCC2(C)C1CCC1(C)C2CC=C2C3CC(C)(C)C(O)C(OC(=O)C(CC)CC)C3(COC(=O)C(CC)CC)C(O)CC21C (stereo not drawn) [Compound E14] | weak
CCC(CC)C(=O)OCC1(C)C(OC(=O)C(CC)CC)CCC2(C)C1CCC1(C)C2CC=C2C3CC(C)(C)C(OC(=O)C(CC)CC)C(OC(=O)C(CC)CC)C3(COC(=O)C(CC)CC)C(O)CC21C (stereo not drawn) [Compound E15] | weak
CCC(CC)C(=O)OCC1(C)C(O)CCC2(C)C1CCC1(C)C2CC=C2C3CC(C)(C)C(OC(=O)C(CC)CC)C(OC(=O)C(CC)CC)C3(COC(=O)C(CC)CC)C(OC(=O)C(CC)CC)CC21C (stereo not drawn) [Compound E16] | weak
CCC(CC)C(=O)OCC1(C)C(OC(=O)C(CC)CC)CCC2(C)C1CCC1(C)C2CC=C2C3CC(C)(C)C(OC(=O)C(CC)CC)C(O)C3(COC(=O)C(CC)CC)C(OC(=O)C(CC)CC)CC21C (stereo not drawn) [Compound E17] | weak
CCC(CC)C(=O)OCC1(C)C(OC(=O)C(CC)CC)CCC2(C)C1CCC1(C)C2CC=C2C3CC(C)(C)C(O)C(OC(=O)C(CC)CC)C3(COC(=O)C(CC)CC)C(OC(=O)C(CC)CC)CC21C (stereo not drawn) [Compound E18] | weak
CCC(CC)C(=O)OCC1(C)C(OC(=O)C(CC)CC)CCC2(C)C1CCC1(C)C2CC=C2C3CC(C)(C)C(OC(=O)C(CC)CC)C(OC(=O)C(CC)CC)C3(COC(=O)C(CC)CC)C(OC(=O)C(CC)CC)CC21C (stereo not drawn) [Compound E19] | none
CCC(CC)C(=O)OCC12C(O)CC3(C)C(=CCC4C5(C)CCC(O)C(C)(CO)C5CCC43C)C1CC(C)(C)C(OC(=O)C(CC)CC)C2OC(=O)C(CC)CC (stereo not drawn) [Compound E20] | moderate
CCC(CC)C(=O)OCC1(C)C(O)CCC2(C)C1CCC1(C)C2CC=C2C3CC(C)(C)C(OC(=O)C(CC)CC)C(OC(=O)C(CC)CC)C3(CO)C(O)CC21C (stereo not drawn) [Compound E21] | moderate
CCC(CC)C(=O)OC1C(OC(=O)C(CC)CC)C2(CO)C(OC(=O)C(CC)CC)CC3(C)C(=CCC4C5(C)CCC(O)C(C)(CO)C5CCC43C)C2CC1(C)C (stereo not drawn) [Compound E22] | moderate
CCC(CC)C(=O)OC1C(OC(=O)C(CC)CC)C2(CO)C(O)CC3(C)C(=CCC4C5(C)CCC(OC(=O)C(CC)CC)C(C)(CO)C5CCC43C)C2CC1(C)C (stereo not drawn) [Compound E23] | moderate
CCC(CC)C(=O)OC1C(OC(=O)C(CC)CC)C2(CO)C(O)CC3(C)C(=CCC4C5(C)CCC(O)C(C)(CO)C5CCC43C)C2CC1(C)C (stereo not drawn) [Compound E24] | moderate
CCC(CC)C(=O)OCC12C(O)CC3(C)C(=CCC4C5(C)CCC(O)C(C)(CO)C5CCC43C)C1CC(C)(C)C(OC(=O)C(CC)CC)C2O (stereo not drawn) [Compound E25] | moderate
CCC(CC)C(=O)OCC12C(O)CC3(C)C(=CCC4C5(C)CCC(O)C(C)(CO)C5CCC43C)C1CC(C)(C)C(O)C2OC(=O)C(CC)CC (stereo not drawn) [Compound E26] | moderate
CCC(CC)C(=O)OCC12C(O)CC3(C)C(=CCC4C5(C)CCC(OC(=O)C(CC)CC)C(C)(CO)C5CCC43C)C1CC(C)(C)C(O)C2O (stereo not drawn) [Compound E27] | moderate
CCC(CC)C(=O)OCC12C(OC(=O)C(CC)CC)CC3(C)C(=CCC4C5(C)CCC(O)C(C)(CO)C5CCC43C)C1CC(C)(C)C(O)C2O (stereo not drawn) [Compound E28] | moderate
